Experimental data taken from ChEMBL document CHEMBL4665751, “Discovery of Clinical Candidate (5-(3-(4-Chlorophenoxy)prop-1-yn-1-yl)-3-hydroxypicolinoyl)glycine, an Orally Bioavailable Prolyl Hydroxylase Inhibitor for the Treatment of Anemia” (J Med Chem, 2020).
Active and inactive are the calls of the source. No cut-off for these calls is given here.

What was measured:
Egl nine homolog 1 = Egl nine homolog 1 (Homo sapiens, UniProt Q9GZT9); experiment: Inhibition of FITC-HIF1alpha (556 to 574 residues) binding to PHD2 (181 to 426 residues) (unknown origin) by fluorescence polarization assay
Sequence of Egl nine homolog 1 (Q9GZT9 whole entry, the tested form may be a part): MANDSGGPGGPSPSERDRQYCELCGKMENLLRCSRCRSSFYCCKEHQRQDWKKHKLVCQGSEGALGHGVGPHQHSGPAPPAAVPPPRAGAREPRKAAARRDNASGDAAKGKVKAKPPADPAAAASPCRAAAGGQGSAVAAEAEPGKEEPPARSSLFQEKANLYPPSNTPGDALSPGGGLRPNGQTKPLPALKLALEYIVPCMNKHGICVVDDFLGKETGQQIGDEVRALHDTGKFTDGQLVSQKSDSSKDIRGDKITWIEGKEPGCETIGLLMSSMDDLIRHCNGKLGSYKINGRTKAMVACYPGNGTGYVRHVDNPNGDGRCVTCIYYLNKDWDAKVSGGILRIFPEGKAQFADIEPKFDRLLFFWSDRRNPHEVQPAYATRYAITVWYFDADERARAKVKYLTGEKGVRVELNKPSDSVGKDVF

[1] = In vivo inhibition of PHD2 in C57BL/6 mouse assessed as increase in EPO plasma level by measuring EPO level at 15 mg/kg, iv measured after 4 hrs by ELISA; assay type: functional
Mus musculus [2] = experiment: Antianemic activity in cisplatin-induced C57BL/6 mouse anemia model assessed as improvement in anemia at 25 mg/kg, po administered every other day for 1 month; assay type: functional; details: time 1 months, 730 h
Mus musculus [3] = experiment: In vivo inhibition of PHD2 in po dosed C57BL/6 mouse assessed as upregulation of EPO plasma level administered 4 times for 3 days by ELISA; assay type: functional, organism-based; details: dose mg/kg 5-50, time 3.0 day
Mus musculus [4] = experiment: Antianemic activity in cisplatin-induced C57BL/6 mouse anemia model assessed as improvement in anemia at 10 mg/kg, po administered every other day for 1 month; assay type: functional; details: time 1 months, 730 h
Mus musculus [5] = experiment: In vivo inhibition of PHD2 in C57BL/6 mouse assessed as upregulation of EPO plasma level by measuring EPO level at 15 mg/kg, po measured after 4 hrs by ELISA; assay type: functional, organism-based
Mus musculus [6] = experiment: Induction of erythropoiesis in po dosed C57BL/6 mouse assessed as increase in red blood cell count administered thrice for 3 days measured 4 hrs post last dose; assay type: functional, organism-based; details: dose mg/kg 5-50, time 72.0 hrs
Mus musculus [7] = experiment: Antianemic activity in cisplatin-induced C57BL/6 mouse anemia model assessed as increase in haemoglobin level administered orally every other day for 1 month; assay type: functional, organism-based; details: dose mg/kg 10-25, time 1.0 months

| SMILES | IC50 (Egl nine homolog 1) [nM] | other results |
| --- | --- | --- |
| O=C(O)CNC(=O)c1ncc(C#CCOCCc2ccc(Cl)cc2)cc1O | 408 | – |
| O=C(O)CNC(=O)c1ncc(C#CCOc2ccccc2C(F)(F)F)cc1O | 1070 | – |
| N#Cc1ccc(OCC#Cc2cnc(C(=O)NCC(=O)O)c(O)c2)cc1 | 263 | – |
| COc1ccc(OCC#Cc2cnc(C(=O)NCC(=O)O)c(O)c2)cc1 | – | Activity [1]: >1000 pg/mL |
| COc1cccc(OCC#Cc2cnc(C(=O)NCC(=O)O)c(O)c2)c1 | 428 | – |
| Cc1cccc(OCC#Cc2cnc(C(=O)NCC(=O)O)c(O)c2)c1 | 125 | Activity [1]: >1000 pg/mL |
| CN(CC#Cc1cnc(C(=O)NCC(=O)O)c(O)c1)c1ccccc1 | 454 | – |
| O=C(O)CNC(=O)c1ncc(C#CCOc2ccccc2Cl)cc1O | – | Activity [1]: >1000 pg/mL |
| COc1ccccc1OCC#Cc1cnc(C(=O)NCC(=O)O)c(O)c1 | 218 | – |
| O=C(O)CNC(=O)c1ncc(C#CCOc2cccc(F)c2)cc1O | 256 | – |
| O=C(O)CNC(=O)c1ncc(C#CCOCc2ccc(Cl)cc2)cc1O | 84.3 | – |
| O=C(O)CNC(=O)c1ncc(C#CCOc2cccc(C(F)(F)F)c2)cc1O | 877 | – |
| O=C(O)CNC(=O)c1ncc(C#CCOc2cccc(Cl)c2)cc1O | 587 | – |
| O=C(O)CNC(=O)c1ncc(C#CCOc2cccc3ccccc23)cc1O | 346 | – |
| O=C(O)CNC(=O)c1ncc(C#CCOc2ccc(-c3ccccc3)cc2)cc1O | 825 | – |
| Cc1nc(C(=O)NCC(=O)O)c(O)c2ccc(Oc3ccccc3)cc12 [ROXADUSTAT] | – | Activity (Mus musculus [2]): 115.2%; inhibition (Mus musculus [3]): Dose-dependent effect; Activity (Mus musculus [4]): 86.4%; inhibition (Mus musculus [5]): Active; Activity (Mus musculus [6]): Dose-dependent effect; Activity (Mus musculus [7]): Active |
